Marks after values point to notes of the source that are not given here.
Molecular target: T1, RhlR (Pseudomonas aeruginosa, UniProt P54292)
T1 construct: expressed in transfected cells; host or cells: E. coli sdiA variant co-transformed with pJN105R and pSC11 (RhlA::lacZ)
Assay: cell-based
Conditions: footnotes not given; for activity at 100 µM: read-out: Relative RhlR activity Agonism, Table 2, matches the 100 column of Table 3; for remaining activity at 100 µM: read-out: Relative RhlR activity Antagonism, Table 2; for remaining activity at 100 µM / Relative RhlR activity Antagonism: 100 μM per Table 3, lower = stronger antagonism; for Relative RhlR activity Antagonism: Table 2
Protocol: Escherichia coli (E. coli) DH5a includes LuxR homolog SdiA detecting endogenous AHL synthesized by other microbial species, particularly, BHL.
For RhlR reporter strain analysis, the present invention used pJN105R (RhlR expression plasmid), anspSC11 (RhlA::lacZ fusion plasmid) and an sdiA variant co-transformed with the two plasmids. 1% of an overnight-cultured reporter strain (OD 595 nm=1.0) supplemented with 10 μg/mL gentamicin and 50 μg/mL ampicillin was cultured in a Luria-Bertani (LB) medium (Difco, Detroit, Mich., USA) with a positive control or a compound (0-1000 μM) and BHL (0-10 μM) (Sigma-Aldrich) at 37° C. for 2 hours. 0.4% arabinose (Sigma-Aldrich) was reacted with the resulting product at 37° C. for 1.5 hours. β-galactosidase activity was evaluated using a Tropix plus kit (Applied Biosystems, CA, USA), and OD 595 nm and luminescence were measured using a VICTOR x5 multimode plate reader (PerkinElmer, Waltham, Mass., USA). Relative RhlR activity was quantified by measuring luminescence at OD 595 nm. In addition, for LasR reporter strain analysis, the present invention used pJN105L (LasR expression plasmid) and pSC11 (lasI::lacZ fusion plasmid), E. coli DH5a co-transformed with the two plasmids, and OdDHL (Sigma-Aldrich).

T1 sequence (P54292 whole entry): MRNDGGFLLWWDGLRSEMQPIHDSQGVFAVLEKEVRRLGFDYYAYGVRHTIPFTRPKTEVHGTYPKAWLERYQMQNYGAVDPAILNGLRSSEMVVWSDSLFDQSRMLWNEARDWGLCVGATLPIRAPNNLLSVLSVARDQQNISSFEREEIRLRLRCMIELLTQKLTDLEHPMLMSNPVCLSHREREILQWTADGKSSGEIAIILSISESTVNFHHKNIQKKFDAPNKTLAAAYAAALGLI

SMILES	activity at 100 µM [%]	remaining activity at 100 µM [%]	Relative RhlR activity Antagonism
CCCC(O)CC(=O)CCc1ccc(O)c(OCC)c1 (centres unmarked) [Compound 12n, 1-(3-Ethoxy-4-hydroxyphenyl)-5-hydroxyoctan-3-one]	1	98	–
CCCC(O)CC(=O)/C=C/c1ccc(O)c(F)c1 (centres unmarked) [Compound 11m, (E)-1-(3-Fluoro-4-hydroxyphenyl)-5-hydroxyoct-1-en-3-one]	2	60	–
CCCC(O)CC(=O)CCc1ccc(OC)c(OC)c1 (centres unmarked) [Compound 12l, 1-(3,4-Dimethoxyphenyl)-5-hydroxyoctan-3-one]	1	94	–
CCCC(O)CC(=O)CCc1ccc(O)cc1 (centres unmarked) [Compound 12d, 5-Hydroxy-1-(4-hydroxyphenyl)octan-3-one]	3	64	–
CCCCCC(=O)/C=C/c1ccc(O)c(OC)c1 [Compound 13b, (E)-1-(4-Hydroxy-3-methoxyphenyl)oct-1-en-3-one]	2	41	41** %
CCCC(O)CC(=O)/C=C/c1ccc(N(C)C)cc1 (centres unmarked) [Compound 11j, (E)-1-(4-(Dimethylamino)phenyl)-5-hydroxyoct-1-en-3-one]	2	53	53** %
CCCCC(O)CC(=O)CCc1ccc(O)c(OC)c1 (centres unmarked) [Compound 3, 5-Hydroxy-1-(4-hydroxy-3-methoxyphenyl)nonan-3-one]	2	62	–
CCCCC[C@H](O)C#Cc1ccc(F)c(F)c1 [Compound 35c, (S)-1-(3,4-Difluorophenyl)oct-1-yn-3-ol]	4	67	–
CCCC(O)CC(=O)CCc1ccc(O)c(O)c1 (centres unmarked) [Compound 12k, 1-(3,4-Dihydroxyphenyl)-5-hydroxyoctan-3-one]	2	47	–
CCCC(O)CC(=O)CCc1ccc(N(C)C)cc1 (centres unmarked) [Compound 12j, 1-(4-(Dimethylamino)phenyl)-5-hydroxyoctan-3-one]	1	74	–
CCCC(O)CC(=O)CCc1ccc(F)cc1 (centres unmarked) [Compound 12g, 1-(4-Fluorophenyl)-5-hydroxyoctan-3-one]	2	51	–
CCCC[C@H](O)C#Cc1ccc(F)c(F)c1 [Compound 34c, (S)-1-(3,4-Difluorophenyl)hept-1-yn-3-ol]	2	64	–
CCCCCC(=O)CCc1ccc(O)c(OC)c1 [Compound 14b, 1-(4-Hydroxy-3-methoxyphenyl)octan-3-one]	2	49	49** %
CCCC(O)CC(=O)CCc1ccc(O)c(F)c1 (centres unmarked) [Compound 12m, 1-(3-Fluoro-4-hydroxyphenyl)-5-hydroxyoctan-3-one]	1	73	–
CCCC(O)CC(=O)CCc1ccccc1 (centres unmarked) [Compound 12b, 5-Hydroxy-1-phenyloctan-3-one]	4	88	–
CCCCCC(O)/C=C/c1ccc(F)c(F)c1 (centres unmarked) [Compound 15a, (E)-1-(3,4-Difluorophenyl)oct-1-en-3-ol]	5	55	–
CCCCCC(O)C#Cc1ccc(F)c(F)c1 (racemic) [Compound 35a, 1-(3,4-Difluorophenyl)oct-1-yn-3-ol]	3	74	–
CCCCCCC(O)CC(=O)CCc1ccc(O)c(OC)c1 (centres unmarked) [Compound 5, 5-Hydroxy-1-(4-hydroxy-3-methoxyphenyl)undecan-3-one]	3	83	–
CCCCCC(O)CCc1ccc(F)c(F)c1 (centres unmarked) [Compound 16a, 1-(3,4-Difluorophenyl)octan-3-ol]	5	61	–
